Patent US20050065068A1, “Methods and compositions for reducing serum phosphate levels” (priority 1999, published 2005)
Non-standard residues stand in square brackets, D forms with d. Residues, ends and D or L forms follow the SMILES beside them. No end group written: not given here. pS = N[C@@H](COP(=O)(O)O)C(=O)O

Assays:
[1] = test system: ovariectomized female Sprague Dawley rats; assay: Serum and urine chemistry in the ovariectomized rat osteoporosis model; format: in vivo; conditions: OVX rats; for Urine Ca^2+ / Serum AP (serum alkaline phosphatase) / Serum Pi (serum inorganic phosphate) / Serum Ca^2+: 200-208 μg/kg peptide oral daily for 84 days; for Serum AP (serum alkaline phosphatase) / Serum Pi (serum inorganic phosphate) / Serum Ca^2+: terminal sample Day 84
Source text: Ovariectomized rats were chosen for the efficacy study of a series of peptides. After a six (6) day quarantine/acclimation period, forty (40) ovariectomized female Sprague Dawley outbred (Crl:CD®IGS BR) rats were randomly allocated into five experimental groups of eight animals each. A sixth group was composed of eight sham-operated Sprague Dawley rats. The experimental design consisted of four test-article groups and two vehicle control groups (one ovariectomized and one sham-operated). Each rat received a single daily oral dose for 84 days of either 0.9% Sodium Chloride for Injection (controls) or 200-208 μg/kg of peptide as specified in Table 1. Doses were based upon a target dose of 50 μg/animal/day and group mean body weights determined at study initiation (Day 0). “Sham” indicates sham-operated rats; and “OVX” indicates ovariectomized rats. The dose range of 200-208 μg/kg/day employed in the study represents the target dose (50 μg/animal/day) in animals weighing […] at study initiation. The test samples for groups 1, 2, 3, and 4 were dissolved in 0.9% Sodium Chloride for injection and administered at once. All dosing was accomplished by oral gavage (dose volume 1.0-1.5 mL, adjusted weekly for bodyweight gain). Certified Rodent Diet #5002 (Purina Mills, Inc., St. Louis, Mo.) was provided during the quarantine/acclimation period and throughout the study. Clinical signs were observed once daily throughout the quarantine/acclimation and treatment periods. Individual body weights were recorded at the initiation of the dosing, once weekly throughout the treatment phase, and at necropsy. Animals were sacrificed approximately 24 hours after the administration of the final dose (Day 84). Terminal whole blood samples were collected from each animal for serum chemistry (i.e. measurement of serum calcium and phosphorus) evaluations via terminal cardiocentesis. Femurs were submitted for post-mortem bone mechanical strength and composition analysis.

[2] = test system: ovariectomized female Sprague Dawley rats; assay: Three-point bending mechanical strength test of the femur in the ovariectomized rat osteoporosis model; format: in vivo; conditions: right femur, Day 84, vs. Group 5
Source text: Ovariectomized rats were chosen for the efficacy study of a series of peptides. After a six (6) day quarantine/acclimation period, forty (40) ovariectomized female Sprague Dawley outbred (Crl:CD®IGS BR) rats were randomly allocated into five experimental groups of eight animals each. A sixth group was composed of eight sham-operated Sprague Dawley rats. The experimental design consisted of four test-article groups and two vehicle control groups (one ovariectomized and one sham-operated). Each rat received a single daily oral dose for 84 days of either 0.9% Sodium Chloride for Injection (controls) or 200-208 μg/kg of peptide as specified in Table 1. Doses were based upon a target dose of 50 μg/animal/day and group mean body weights determined at study initiation (Day 0). “Sham” indicates sham-operated rats; and “OVX” indicates ovariectomized rats. The dose range of 200-208 μg/kg/day employed in the study represents the target dose (50 μg/animal/day) in animals weighing […] at study initiation. The test samples for groups 1, 2, 3, and 4 were dissolved in 0.9% Sodium Chloride for injection and administered at once. All dosing was accomplished by oral gavage (dose volume 1.0-1.5 mL, adjusted weekly for bodyweight gain). Certified Rodent Diet #5002 (Purina Mills, Inc., St. Louis, Mo.) was provided during the quarantine/acclimation period and throughout the study. Clinical signs were observed once daily throughout the quarantine/acclimation and treatment periods. Individual body weights were recorded at the initiation of the dosing, once weekly throughout the treatment phase, and at necropsy. Animals were sacrificed approximately 24 hours after the administration of the final dose (Day 84). Terminal whole blood samples were collected from each animal for serum chemistry (i.e. measurement of serum calcium and phosphorus) evaluations via terminal cardiocentesis. Femurs were submitted for post-mortem bone mechanical strength and composition analysis. The right femur of each animal was reserved for bone mechanical strength evaluation (i.e. three-point bending analysis). Femurs were placed on an apparatus in which two isolated points of the long bone were supported. Weight load was applied at the center of two supporting points toward the direction in which the bone is bent. […] Femurs were positioned with the anterior side toward the center load, and the posterior side toward the two supports. The loading was done in an Instron Model #1122 materials testing machine (Canton, Mass.). Testing was conducted with a displacement of 2.0 mm/minute. Load and displacement were recorded at 0.002 mm displacement intervals. Experiments were controlled using a computer-based data acquisition system running ASYST Scientific Software (Keithley-Metrabyte; Taunton, Mass.). The following data were generated: Maximum Load (in Newton, N); Initial Stiffness (in N/mm); Energy at Maximum (in Nmm) The value of the load was plotted against the deflection generating the load-deflection curve. Two points in the initial linear portion of the load-deflection curve were chosen by the operator at the time of testing. A line was constructed through the chosen points, the slope of which is the initial stiffness. The maximum load is the largest value of the load recorded during the flexural test. The energy at maximum is the area under the load-deflection curve up to the maximum load point.

Molecule | Urine Ca^2+ [1] | Serum AP (serum alkaline phosphatase) [1] | Serum Pi (serum inorganic phosphate) [1] | Serum phosphorus concentration compared with controls (FIG. 1) ([1]; oral daily for 84 days, Day 84, vs saline-treated OVX controls and sham-operated controls) | Energy at maximum compared with saline-treated ovariectomized controls (FIG. 6) [2] | Initial bone stiffness compared with saline-treated ovariectomized controls (FIG. 4) [2] | Maximum load compared with saline-treated ovariectomized controls (FIG. 5) [2] | Serum Ca^2+ [1]
Ser-Gly-Ser-Gly-Ser-Gly-Ser-Gly-Ser-Gly-Pse-Gly-Pse-Gly (SGSGSGSGSG[pS]G[pS]G) [(Ser-Gly)5(Pse-Gly)2, Linear peptide, Pse = O-phosphoserine] | 26.6 ± 14.1 mg/dL | 118 ± 18 U/L | 7.9 ± 0.9 mg/dL | equivalent to or even lower than sham-operated controls | statistically significant increase | statistically significant increase | statistically significant increase | –
N[C@@H](COP(=O)(O)O)C(=O)NCC(=O)N[C@@H](COP(=O)(O)O)C(=O)NCC(=O)N[C@@H](COP(=O)(O)O)C(=O)NCC(=O)N[C@@H](COP(=O)(O)O)C(=O)NCC(=O)N[C@@H](COP(=O)(O)O)C(=O)NCC(=O)N[C@@H](COP(=O)(O)O)C(=O)NCC(=O)N[C@@H](COP(=O)(O)O)C(=O)NCC(=O)O [(Pse-Gly)7, Pse-Gly-Pse-Gly-Pse-Gly-Pse-Gly-Pse-Gly-Pse-Gly-Pse-Gly] (H-[pS]G[pS]G[pS]G[pS]G[pS]G[pS]G[pS]G-OH) | – | – | – | – | – | – | – | 11.0 ± 0.5 mg/dL
Ser-Gly-Ser-Gly-Pse-Gly-Pse-Gly-Pse-Gly-Pse-Gly-Pse-Gly (SGSG[pS]G[pS]G[pS]G[pS]G[pS]G) [(Ser-Gly)2(Pse-Gly)5, Linear peptide, Pse = O-phosphoserine] | 29.5 ± 20.0 mg/dL | 121 ± 30 U/L | 9.2 ± 1.3 mg/dL | – | statistically significant increase | statistically significant increase | statistically significant increase | –
N[C@@H](CO)C(=O)NCC(=O)N[C@@H](CO)C(=O)NCC(=O)N[C@@H](CO)C(=O)NCC(=O)N[C@@H](CO)C(=O)NCC(=O)N[C@@H](CO)C(=O)NCC(=O)N[C@@H](CO)C(=O)NCC(=O)N[C@@H](CO)C(=O)NCC(=O)O [(Ser-Gly)7, Ser-Gly-Ser-Gly-Ser-Gly-Ser-Gly-Ser-Gly-Ser-Gly-Ser-Gly] (H-SGSGSGSGSGSGSG-OH) | 26.7 ± 22.9 mg/dL | 134 ± 53 U/L | 8.8 ± 1.0 mg/dL | – | – | – | – | 10.8 ± 0.6 mg/dL
